Results published in ChEMBL document CHEMBL1212841, “Mycenaaurin A, an antibacterial polyene pigment from the fruiting bodies of Mycena aurantiomarginata” (2010).

Test system: Bacillus pumilus
Assay: Antimicrobial activity Bacillus pumilus at 0.5 umol/disk by disk diffusion method
Assay type: functional

CC(=O)N[C@@H](CCO[C@H](C)C/C=C/CC[C@@H](O)C/C=C/C=C/C=C/C=C/C=C/C=C/c1cc(O)c(CC[C@H](N)C(=O)O)c(=O)o1)C(=O)O [MYCENAAURIN A]
inhibition zone (IZ): 2.5 cm
